{
  "source": "patent US5169858A",
  "about": "“Anti-tumor compositions containing the reactive product of benzaldehyde or salicylaldehyde with penicillamine and method of use thereof” (priority 1986, dated 1992)",
  "key": {"mouse melanoma cells [1]": {"test_system": "mouse melanoma cells", "assay": "Subcutaneous mouse melanoma, treatment from palpable tumor, 33 mg/kg orally every day", "format": "in vivo, black mice", "conditions": "33 mg/kg every day by oral intubation", "description": "(§1) Thirty-seven black mice were divided into two groups. Group I had 18 mice and was the control group. Group II had 19 mice and was the treated group. Each mouse was innoculated with 100,000 mouse melanoma cells subcutaneously. After the tumor was palpable (after about a week) the control group received saline orally. The treated group got 33 mg/kg of 5,5-dimethyl-2-phenyl-4-thiazolidine carboxylic acid every day by oral intubation. All of the control group died within an average of twenty-three days. The treated group started dying at day 50. The last mouse of the treated group died on day 70. The treated group died from day 50 on at the rate of about one mouse per day. […] Two mice in the treated group survived cured. The tumor disappeared in the two cured mice."}, "[2]": {"conditions": "Terol et al publication; species and route not given; cited from earlier work"}, "[3]": {"conditions": "Terol et al publication; cited from earlier work"}, "[4]": {"assay": "Water solubility of free compound and copper chelates", "format": "physicochemical", "conditions": "stated in the description, no test described"}, "mouse melanoma cells [5]": {"test_system": "mouse melanoma cells", "format": "in vivo, black mice", "description": "as §1\nThe same experiment was repeated with 20 control mice and 20 mice in the treated group, employing doses of 5,5-dimethyl-2-phenyl-4-thiazolidine carboxylic acid at 100 mg/kg. The treatment began about one day after innoculation. The control group died at the same time as the control group in the previous experiment. […] Five of the treated mice died between the 7th and 9th day. The reasons for these deaths are unclear, but it is presumed that they were asphyxiated by intubation."}, "tumor": {"test_system": "tumor", "conditions": "literature / other patent (Kochi et al.; U.S. Pat. No. 4,762,705); cited from earlier work"}},
  "data": [
    {"compound": "CC1(C)SC(c2ccccc2)NC1C(=O)O", "note": "(stereo not drawn) [5,5-dimethyl-2-phenyl-4-thiazolidine carboxylic acid]", "values": [
      {"measurement": "tumor development compared with control group", "setting": "mouse melanoma cells [1]", "result": "developed slower than the tumors in the control group"},
      {"measurement": "day of death of last mouse of treated group", "setting": "mouse melanoma cells [1]; 19 treated mice", "result": 70, "unit": "days"},
      {"measurement": "mice in treated group that survived cured (tumor disappeared)", "setting": "mouse melanoma cells [1]; 19 treated mice", "result": "Two"},
      {"measurement": "day on which treated group started dying", "setting": "mouse melanoma cells [1]; 19 treated mice, control died within an average of twenty-three days", "result": 50, "unit": "days"},
      {"measurement": "LD50", "setting": "[2]", "result": 1200, "unit": "mg/kg"},
      {"measurement": "effect as a radio-protectant agent", "setting": "[3]", "result": "absolutely no effect whatsoever"},
      {"measurement": "water solubility", "setting": "[4]", "result": "water-soluble"},
      {"measurement": "palpable tumors developed in treated group", "setting": "mouse melanoma cells [5]; 100 mg/kg, treatment began about one day after inoculation, 20 treated mice", "result": "no palpable tumors"},
      {"measurement": "day of death of the five treated mice", "setting": "mouse melanoma cells [5]; mouse, in vivo", "result": "7 to 9", "unit": "days"},
      {"measurement": "treated mice that died between the 7th and 9th day", "setting": "mouse melanoma cells [5]; mouse, in vivo", "result": "Five"}
    ]},
    {"compound": "O=Cc1ccccc1", "note": "[benzaldehyde]", "values": [
      {"measurement": "anti-tumor activity", "setting": "tumor", "result": "has been shown to have anti-tumor activity"}
    ]},
    {"compound": "CC(C)(S)[C@@H](N)C(=O)O", "note": "[penicillamine, dimethylcysteine]", "values": [
      {"measurement": "anti-tumor activity", "setting": "tumor", "result": "has anti-tumor activity"}
    ]}
  ]
}
